# Test results from ChEMBL document CHEMBL1144853, “Arginine binding motifs: design and synthesis of galactose-derived arginine tweezers as galectin-3 inhibitors” (J Med Chem, 2008).
# Molecular target: Galectin-3 (Homo sapiens, UniProt P17931)
# Test: Binding affinity to human galectin 3 by Fluorescence polarization assay
# Sequence of Galectin-3 (P17931 whole entry): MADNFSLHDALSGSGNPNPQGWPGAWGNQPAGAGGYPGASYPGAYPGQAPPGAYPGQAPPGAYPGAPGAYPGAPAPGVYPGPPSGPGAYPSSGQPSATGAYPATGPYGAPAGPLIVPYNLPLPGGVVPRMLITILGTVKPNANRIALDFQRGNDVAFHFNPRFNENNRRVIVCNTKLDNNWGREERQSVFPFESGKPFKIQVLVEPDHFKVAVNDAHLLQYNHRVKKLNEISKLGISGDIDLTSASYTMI
row,SMILES,Kd [µM]
1,CS[C@@H]1O[C@H](CO)[C@H](O)[C@H](O)[C@H]1OS(=O)(=O)O,2800
2,CS[C@@H]1O[C@H](CO)[C@H](O)[C@H](NC(=O)c2ccc(C)cc2)[C@H]1OP(=O)(O)O,250
3,CS[C@@H]1O[C@H](CO)[C@H](O)[C@H](NC(=O)c2ccc(C)cc2)[C@H]1OC(=O)c1ccccc1,380
4,CS[C@@H]1O[C@H](CO)[C@H](O)[C@H](O)[C@H]1O,5900
5,CS[C@@H]1O[C@H](CO)[C@H](O)[C@H](NC(=O)c2ccc(C)cc2)[C@H]1OC(C)=O,240

# Compounds with a lower Kd, results first:
row,Kd [µM],SMILES
1,220,CS[C@@H]1O[C@H](CO)[C@H](O)[C@H](NC(=O)c2ccc(C)cc2)[C@H]1O
2,150,CS[C@@H]1O[C@H](CO)[C@H](O)[C@H](NC(=O)c2ccc(C)cc2)[C@H]1O[PH](=O)O
3,120,CS[C@@H]1O[C@H](CO)[C@H](O)[C@H](NC(=O)c2ccc(C)cc2)[C@H]1OP(=O)(O)OCc1ccccc1
4,87,CS[C@@H]1O[C@H](CO)[C@H](O)[C@H](NC(=O)c2ccc(C)cc2)[C@H]1OS(=O)(=O)O
